{"source": "patent US12662707B2", "about": "“MYC amplification drives resistance to pan-RAS inhibitors in pancreatic cancer” (The Trustees of Columbia University in the City of New York, priority 2024, dated 2026)", "origin": "cited, not measured here", "tested_on": "autochthonous KPC pancreatic tumors", "details": "reference 27; cited from earlier work"}
{"smiles": "Nc1ccn([C@@H]2O[C@H](CO)[C@@H](O)C2(F)F)c(=O)n1", "note": "[gemcitabine]", "values": [{"measurement": "effect on survival in the KPC model", "value": "do not significantly alter survival"}]}
